Measured values published in PubChem BioAssay (NCI).
“And” between values parts separate entries of the source, which are not always exact repeats. Equal values may be shown once.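 Briefly, cells in 96-well plates were exposed to five compound concentrations for 48 h, and endpoints were estimated by linear interpolation. GI50 marks 50% less growth. TGI is the concentration that stops growth completely.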

Legend:
Assay in all cases: DTP human tumour cell line panel, 48 h
[1] = tested on: SN12C renal
[2] = tested on: HT29 colon
[3] = tested on: NCI-H522 lung
[4] = tested on: SR leukemia
[5] = tested on: MOLT-4 leukemia
[6] = tested on: SK-MEL-5 melanoma
[7] = tested on: SK-MEL-2 melanoma
[8] = tested on: IGROV1 ovarian
[9] = tested on: SF-268 CNS
[10] = tested on: MDA-N
[11] = tested on: BT-549 breast

COc1ccc(/C=c2\sc3n(c2=O)CCN=3)cc1
TGI [1]: > 100 µM
TGI [2]: > 100 µM
TGI [3]: > 100 µM
TGI [4]: > 100 µM
TGI [5]: > 100 µM
TGI [6]: > 100 µM
TGI [7]: > 100 µM

CC1=C(Cl)C=CP(=O)(Oc2ccccc2)C1 (centres undefined)
TGI [8]: > 100 µM
TGI [3]: 29.9 µM
TGI [5]: > 10 µM
TGI [6]: > 100 µM
TGI [7]: > 100 µM
TGI [9]: > 100 µM

COC(=O)[C@@H](O)[C@](O)(CCC(C)C)C(=O)O[C@@H]1C(OC)=C[C@]23CCCN2CCc2cc4c(cc2[C@H]13)OCO4
TGI [8]: 20 µM
TGI [1]: 10.3 µM
TGI [2]: 12.2 µM
TGI [3]: 2.99 µM
TGI [5]: 6.97 µM
TGI [6]: 5.99 µM
TGI [7]: 9.15 µM
TGI [9]: 3.37 µM

Cc1ccc(N(Cc2ccccc2)Cc2ccccc2)cc1
TGI [10]: > 100 µM
TGI [8]: > 100 µM
TGI [1]: > 100 µM
TGI [2]: > 100 µM
TGI [3]: 86.8 µM
TGI [11]: > 100 µM
TGI [5]: 79.3 µM
TGI [6]: > 100 µM
TGI [7]: 63.3 µM
TGI [9]: > 100 µM

c1ccc2c(c1)Cn1c-2nc2ccccc21
TGI [10]: > 100 µM
TGI [8]: > 100 µM
TGI [1]: > 100 µM
TGI [2]: > 100 µM
TGI [3]: > 100 µM
TGI [11]: > 100 µM
TGI [5]: > 100 µM
TGI [6]: > 100 µM
TGI [7]: > 100 µM
TGI [9]: > 100 µM

N#CC(Cc1ccccc1)N(CCC1=CCCCC1)C(c1ccccc1)c1ccccc1 (centres undefined)
TGI [10]: > 100 µM
TGI [8]: > 100 µM
TGI [2]: > 100 µM
TGI [3]: 65.9 µM
TGI [11]: > 100 µM
TGI [5]: > 100 µM
TGI [6]: > 100 µM
TGI [7]: > 100 µM
TGI [9]: > 100 µM

COc1ccc(CN2C(=O)/C(=C\c3cc(OC)c(OC)c(OC)c3)c3ccccc32)cc1
GI50 [8]: 1.72 µM
TGI [8]: 4.64 µM
GI50 [1]: 3.04 µM
TGI [1]: > 100 µM
GI50 [2]: 1.68 µM
TGI [2]: 3.79 µM
GI50 [3]: 1.58 µM
TGI [3]: 3.57 µM
GI50 [11]: 1.08 µM
TGI [11]: 7.53 µM
GI50 [6]: 2.51 µM
TGI [6]: 6.63 µM
GI50 [7]: 1.87 µM
TGI [7]: 4.11 µM
GI50 [9]: 2.65 µM
TGI [9]: 7.93 µM

[N-]=[N+]=NC(c1ccccc1)(c1ccccc1)c1ccccc1
TGI [10]: 31.4 µM
TGI [8]: 63.7 µM
TGI [1]: 30.9 µM
TGI [2]: 32.6 µM
TGI [3]: 33.5 µM
TGI [11]: 37.7 µM
TGI [5]: 44.8 µM
TGI [6]: 26.8 µM
TGI [7]: 29.3 µM
TGI [9]: 35.7 µM

O=C(Cc1ccc(O)c(O)c1)NCc1c[nH]c2ccccc12
TGI [2]: > 100 µM
TGI [3]: > 100 µM
TGI [11]: > 100 µM
TGI [5]: > 100 µM
TGI [6]: > 100 µM
TGI [7]: > 100 µM
TGI [9]: > 100 µM

C(=C(c1ccc(OC2CCCCO2)cc1)c1ccc(OC2CCCCO2)cc1)c1ccccc1 (centres undefined)
TGI [10]: 1.75 µM
TGI [8]: 1.71 µM
TGI [1]: 2.47 µM
TGI [2]: 1.28 µM
TGI [3]: 2.4 µM
TGI [11]: 1.5 µM
TGI [5]: > 100 µM
TGI [6]: 1.78 µM
TGI [7]: 2.77 µM
TGI [9]: 5.31 µM

CC(=O)/C=C/C1=C(C)CCCC1(C)CC(C)C (centres undefined)
TGI [10]: > 100 µM
TGI [8]: > 100 µM
TGI [1]: 38.5 µM
TGI [2]: 87.5 µM
TGI [3]: 57.8 µM
TGI [4]: 36.8 µM
TGI [5]: 41.5 µM
TGI [6]: 49.1 µM
TGI [7]: 43.5 µM
TGI [9]: > 100 µM

CCCCCCCC/C=C\CCCCCCCCCCCC(=O)O
TGI [8]: > 125 µM
TGI [1]: > 98 µM
TGI [2]: > 125 µM
TGI [3]: 40 µM
TGI [5]: 95.2 µM
TGI [6]: 57.5 µM
TGI [7]: 31.1 µM
TGI [9]: > 125 µM

COc1cccc(Nc2nc(-c3cccs3)nc3cc(OC)c(OC)cc23)c1
TGI [8]: 69.3 µM
TGI [1]: 53.8 µM
TGI [2]: 48.8 µM
TGI [3]: 43.1 µM
TGI [11]: 86 µM
TGI [4]: 76.9 µM
TGI [5]: > 100 µM
TGI [6]: 44.5 µM
TGI [7]: > 100 µM
TGI [9]: > 100 µM

Nc1nc(SCCC/C=C/I)nc2c1ncn2C1OC(COP(=O)(O)O)C(O)C1O (centres undefined)
TGI [8]: > 100 µM
TGI [1]: > 100 µM
TGI [2]: > 100 µM
TGI [3]: > 100 µM
TGI [4]: > 100 µM
TGI [5]: > 100 µM
TGI [6]: > 100 µM
TGI [7]: > 100 µM
TGI [9]: > 100 µM

O=C1C=C[C@@H](COC2OC(CO)C(O)C(O)C2O)O1 (some centres undefined)
GI50 [8]: 14.2 µM
TGI [8]: 34.9 µM and 83.1 µM
GI50 [1]: 8.38 µM
TGI [1]: 24.4 µM and 19 µM
GI50 [2]: 1.62 µM
TGI [2]: 5.69 µM and 19.2 µM
GI50 [3]: 2.22 µM
TGI [3]: 5.61 µM and 18.4 µM
TGI [5]: 21.1 µM and 48.6 µM
TGI [6]: 33.9 µM
GI50 [7]: 15.3 µM
TGI [7]: 36.3 µM and 32.8 µM
GI50 [9]: 4.59 µM
TGI [9]: 17.8 µM and 62.6 µM

Nc1nc(-c2ccccc2)nc2oc(-c3cccs3)nc12
TGI [8]: > 100 µM
TGI [1]: > 100 µM
TGI [2]: > 100 µM
TGI [3]: > 100 µM
TGI [11]: > 100 µM
TGI [4]: > 100 µM
TGI [5]: > 100 µM
TGI [6]: > 100 µM
TGI [7]: > 100 µM
TGI [9]: > 100 µM
